# Data as given in article PMC10962542, “Inhibition of Aurora‐A/N‐Myc Protein–Protein Interaction Using Peptidomimetics: Understanding the Role of Peptide Cyclization” (Chembiochem, 2023).
# Marks after values point to notes of the source that are not given here. *1 amine or outer side, *2 acyl side, *3 side chain or, on linkers, in order; H or OH if unused. Where a SMILES comes first, the peptide text is derived from it. Bridges are numbered along the chain shown (N, C = ends). Maleimide(3,4-diyl) = O=C1NC(=O)C([*:2])=C1[*:1]
# Assays:
# [1] = target: T1, N‐Myc/Aurora‐A interaction (Aurora‐A122‐403‐C290A/C393A) (Homo sapiens, UniProt O14965, C290A/C393A); test: competition fluorescence anisotropy (FA) assay against fluorescein labelled N‐Myc61‐89; format: binding; conditions: SD; further: equilibrated 2 h at room temperature
# T1 construct: Aurora‐A 122‐403‐C290A/C393A protein was produced as described previously; made in house
# T1 sequence (O14965 122-403 C290A/C393A): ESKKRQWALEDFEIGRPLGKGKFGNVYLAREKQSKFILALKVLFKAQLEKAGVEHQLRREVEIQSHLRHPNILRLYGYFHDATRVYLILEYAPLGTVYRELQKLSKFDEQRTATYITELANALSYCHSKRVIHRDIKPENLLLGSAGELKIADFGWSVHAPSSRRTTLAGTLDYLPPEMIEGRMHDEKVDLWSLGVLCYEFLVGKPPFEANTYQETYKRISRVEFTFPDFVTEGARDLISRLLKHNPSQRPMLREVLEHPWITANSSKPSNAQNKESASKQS
# [2] = circular dichroism (CD) spectroscopy; format: physicochemical; conditions: 150 mM NaCl, 5 mM MgCl2, pH 7.5, 5 °C, n=2, free‐thiol (red) samples with 5 mol equivalents TCEP; for MRE222 (mean residue ellipticity at 222 nm): 25 mM Tris, mean ± SD, SD; for % Helicity (estimated): from MRE222 by equation 7, 25 mM Tris
# In short: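 Peptides at 30–120 μM in 25 mM Tris, 150 mM NaCl, 5 mM MgCl2, pH 7.5 (plus 5 mol eq. TCEP for free sulfhydryl peptides) were scanned in duplicate at 5 °C from 290 to 180 nm, 1 mm pathlength. Buffer-subtracted ellipticity gave mean residue ellipticity, and % helicity was estimated from MRE at 222 nm.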
# circular dichroism = test: circular dichroism; parameters: unit not given here; conditions: 25 mM Tris, 150 mM NaCl, 5 mM MgCl2; pH 7.5; 5 °C; 30-120 uM
Compound,IC50 [1] [µM],MRE222 (mean residue ellipticity at 222 nm) [2],% Helicity (estimated) [2] [%],helicity (circular dichroism)
CSCC[C@H](NC(=O)[C@H](CCC(=O)O)NC(=O)[C@@H](NC(=O)[C@@H](NC(=O)[C@H](Cc1c[nH]c2ccccc12)NC(=O)[C@H](CO)NC(=O)[C@@H]1CCCN1C(=O)[C@@H]1CCCN1C(=O)[C@H](CCC(=O)O)NC(C)=O)C(C)C)[C@@H](C)O)C(=O)N[C@@H](CC(C)C)C(=O)N[C@@H](CC(C)C)C(=O)N[C@@H](CCC(=O)O)C(=O)N[C@@H](CC(N)=O)C(=O)N[C@@H](CCC(=O)O)C(=O)N[C@@H](CC(C)C)C(=O)N[C@@H](Cc1c[nH]c2ccccc12)C(=O)NCC(N)=O [N‐Myc73‐89],,−4079±71 deg cm^−1 dmol^−1 res^−1,13±1,-4080
CSCC[C@H](NC(=O)[C@H](CCC(=O)O)NC(=O)[C@@H](NC(=O)[C@@H](NC(=O)[C@H](Cc1c[nH]c2ccccc12)NC(=O)[C@H](CO)NC(=O)[C@@H]1CCCN1C(=O)[C@@H]1CCCN1C(=O)[C@H](CO)NC(C)=O)C(C)C)[C@@H](C)O)C(=O)N[C@@H](CC(C)C)C(=O)N[C@@H](CC(C)C)C(=O)N[C@@H](CCC(=O)O)C(=O)N[C@@H](CC(N)=O)C(=O)N[C@@H](CCC(=O)O)C(=O)N[C@@H](CC(C)C)C(=O)N[C@@H](Cc1c[nH]c2ccccc12)C(=O)NCC(N)=O [N‐Myc73‐89‐E73S],217 ± 13,−5541±66 deg cm^−1 dmol^−1 res^−1,17±1,-5540
CSCC[C@H](NC(=O)[C@H](CCC(=O)O)NC(=O)[C@@H](NC(=O)[C@@H](NC(=O)[C@H](Cc1c[nH]c2ccccc12)NC(=O)[C@H](CO)NC(=O)[C@@H]1CCCN1C(=O)[C@@H]1CCCN1C(=O)[C@H](COP(=O)(O)O)NC(C)=O)C(C)C)[C@@H](C)O)C(=O)N[C@@H](CC(C)C)C(=O)N[C@@H](CC(C)C)C(=O)N[C@@H](CCC(=O)O)C(=O)N[C@@H](CC(N)=O)C(=O)N[C@@H](CCC(=O)O)C(=O)N[C@@H](CC(C)C)C(=O)N[C@@H](Cc1c[nH]c2ccccc12)C(=O)NCC(N)=O [N‐Myc73‐89‐E73pS],,−5394±235 deg cm^−1 dmol^−1 res^−1,16±1,-5390
CSCC[C@H](NC(=O)[C@H](CCC(=O)O)NC(=O)[C@@H](NC(=O)[C@@H](NC(=O)[C@H](Cc1c[nH]c2ccccc12)NC(=O)[C@H](CO)NC(=O)[C@@H]1CCCN1C(=O)[C@@H]1CCCN1C(=O)[C@H](CCC(=O)O)NC(C)=O)C(C)C)[C@@H](C)O)C(=O)N[C@@H](CC(C)C)C(=O)N[C@@H](CC(C)C)C(=O)N[C@@H](CCC(=O)O)C(=O)N[C@@H](CC(N)=O)C(=O)N[C@@H](CCC(=O)O)C(=O)N[C@@H](CC(C)C)C(=O)N[C@@H](Cc1c[nH]c2ccccc12)C(=O)NCC(=O)N[C@@H](CO)C(=O)N1CCC[C@H]1C(=O)N[C@@H](C)C(=O)N[C@@H](CCC(=O)O)C(=O)N[C@@H](CCC(=O)O)C(N)=O [N‐Myc73‐94],199 ± 13,−4235±181 deg cm^−1 dmol^−1 res^−1,13±1,-4240
CSCC[C@H](NC(=O)[C@H](CCC(=O)O)NC(=O)[C@@H](NC(=O)[C@@H](NC(=O)[C@H](Cc1c[nH]c2ccccc12)NC(=O)[C@H](CO)NC(=O)[C@@H]1CCCN1C(=O)[C@@H]1CCCN1C(=O)[C@H](CCC(=O)O)NC(C)=O)C(C)C)[C@@H](C)O)C(=O)N[C@@H](CC(C)C)C(=O)N[C@@H](CC(C)C)C(=O)N[C@@H](CCC(=O)O)C(=O)N[C@@H](CC(N)=O)C(=O)N[C@H]1CSSC[C@@H](C(=O)N2CCC[C@H]2C(=O)N[C@@H](C)C(=O)N[C@@H](CCC(=O)O)C(=O)N[C@@H](CCC(=O)O)C(N)=O)NC(=O)CNC(=O)[C@H](Cc2c[nH]c3ccccc23)NC(=O)[C@H](CC(C)C)NC1=O [N‐Myc73‐94‐E86C/S90C (ox)] (Ac-EPPSWVTEMLLENCLWGCPAEE-NH2; disulfide 14-18),172 ± 23,−7454±130 deg cm^−1 dmol^−1 res^−1,21±1,-7450
CSCC[C@H](NC(=O)[C@H](CCC(=O)O)NC(=O)[C@@H](NC(=O)[C@@H](NC(=O)[C@H](Cc1c[nH]c2ccccc12)NC(=O)[C@H](CO)NC(=O)[C@@H]1CCCN1C(=O)[C@@H]1CCCN1C(=O)[C@H](CCC(=O)O)NC(C)=O)C(C)C)[C@@H](C)O)C(=O)N[C@@H](CC(C)C)C(=O)N[C@@H](CC(C)C)C(=O)N[C@@H](CCC(=O)O)C(=O)N[C@@H](CC(N)=O)C(=O)N[C@@H](CS)C(=O)N[C@@H](CC(C)C)C(=O)N[C@@H](Cc1c[nH]c2ccccc12)C(=O)NCC(=O)N[C@@H](CS)C(=O)N1CCC[C@H]1C(=O)N[C@@H](C)C(=O)N[C@@H](CCC(=O)O)C(=O)N[C@@H](CCC(=O)O)C(N)=O [N‐Myc73‐94‐E86C/S90C (red)] (Ac-EPPSWVTEMLLENCLWGCPAEE-NH2),203 ± 4,−6397±64^[e] deg cm^−1 dmol^−1 res^−1,18±1,-6400

# Further compounds by falling IC50 [1], results first:
IC50 [1] [µM],MRE222 (mean residue ellipticity at 222 nm) [2],% Helicity (estimated) [2] [%],Compound,helicity (circular dichroism)
130 ± 9,−5255±217 deg cm^−1 dmol^−1 res^−1,15±1,CSCC[C@H](NC(=O)[C@H](CCC(=O)O)NC(=O)[C@@H](NC(=O)[C@@H](NC(=O)[C@H](Cc1c[nH]c2ccccc12)NC(=O)[C@H](CO)NC(=O)[C@@H]1CCCN1C(=O)[C@@H]1CCCN1C(=O)[C@H](CCC(=O)O)NC(C)=O)C(C)C)[C@@H](C)O)C(=O)N[C@@H](CC(C)C)C(=O)N[C@@H](CC(C)C)C(=O)N[C@@H](CCC(=O)O)C(=O)N[C@H]1CSSC[C@@H](C(=O)N[C@@H](CO)C(=O)N2CCC[C@H]2C(=O)N[C@@H](C)C(=O)N[C@@H](CCC(=O)O)C(=O)N[C@@H](CCC(=O)O)C(N)=O)NC(=O)[C@H](Cc2c[nH]c3ccccc23)NC(=O)[C@H](CC(C)C)NC(=O)[C@H](CCC(=O)O)NC1=O [N‐Myc73‐94‐N85C/G89C (ox)] (Ac-EPPSWVTEMLLECELWCSPAEE-NH2; disulfide 13-17),-5260
111 ± 18,,,"CSCC[C@H](NC(=O)[C@H](CCC(=O)O)NC(=O)[C@@H](NC(=O)[C@@H](NC(=O)[C@H](Cc1c[nH]c2ccccc12)NC(=O)[C@H](CO)NC(=O)[C@@H]1CCCN1C(=O)[C@@H]1CCCN1C(=O)[C@H](CCC(=O)O)NC(C)=O)C(C)C)[C@@H](C)O)C(=O)N[C@@H](CC(C)C)C(=O)N[C@@H](CC(C)C)C(=O)N[C@@H](CCC(=O)O)C(=O)N[C@@H](CC(N)=O)C(=O)N[C@H]1CSC2=C(SC[C@@H](C(=O)N3CCC[C@H]3C(=O)N[C@@H](C)C(=O)N[C@@H](CCC(=O)O)C(=O)N[C@@H](CCC(=O)O)C(N)=O)NC(=O)CNC(=O)[C@H](Cc3c[nH]c4ccccc34)NC(=O)[C@H](CC(C)C)NC1=O)C(=O)NC2=O [N‐Myc73‐94‐E86C/S90C (mal)] (Ac-EPPSWVTEMLLENCLWGCPAEE-NH2; linker 14-18 via Maleimide(3,4-diyl))",-5720
79 ± 4,−4886±55 deg cm^−1 dmol^−1 res^−1,14±1,Ac-EPPSWVTEMLLENELWGSPAEEDAF-NH2 [N‐Myc73‐97],
75 ± 8,-1951 ± 84 deg cm^−1 dmol^−1 res^−1,6 ± 1,CSCC[C@@H]1NC(=O)[C@H](CCC(=O)O)NC(=O)[C@@H](NC(=O)[C@@H](NC(=O)[C@H](Cc2c[nH]c3ccccc23)NC(=O)[C@H](CO)NC(=O)[C@@H]2CCCN2C(=O)[C@@H]2CCCN2C(=O)[C@H](CCC(=O)O)NC(=O)[C@H](CO)NC(=O)[C@H](CO)NC(=O)[C@H](Cc2c[nH]cn2)NC(=O)[C@H](CCC(=O)O)NC(=O)[C@H](C)NC(=O)[C@H](Cc2ccccc2)NC(=O)CNC(=O)[C@H](CCCNC(=N)N)NC(=O)[C@H](CO)NC(=O)[C@@H]2CCCN2C(=O)[C@H](CO)NC(=O)[C@H](CC(C)C)NC(C)=O)C(C)C)CSSC[C@@H](C(=O)N[C@@H](CCC(=O)O)C(=O)N[C@@H](CC(N)=O)C(=O)N[C@@H](CCC(=O)O)C(=O)N[C@@H](CC(C)C)C(=O)N[C@@H](Cc2c[nH]c3ccccc23)C(=O)NCC(N)=O)NC(=O)[C@H](CC(C)C)NC1=O [N-Myc 61-89T79C/L83C ox] (Ac-LSPSRGFAEHSSEPPSWVCEMLCENELWG-NH2; disulfide 19-23),
49 ± 5,,,"CSCC[C@H](NC(=O)[C@H](CCC(=O)O)NC(=O)[C@@H](NC(=O)[C@@H](NC(=O)[C@H](Cc1c[nH]c2ccccc12)NC(=O)[C@H](CO)NC(=O)[C@@H]1CCCN1C(=O)[C@@H]1CCCN1C(=O)[C@H](CCC(=O)O)NC(C)=O)C(C)C)[C@@H](C)O)C(=O)N[C@@H](CC(C)C)C(=O)N[C@@H](CC(C)C)C(=O)N[C@@H](CCC(=O)O)C(=O)N[C@H]1CSC2=C(SC[C@@H](C(=O)N[C@@H](CO)C(=O)N3CCC[C@H]3C(=O)N[C@@H](C)C(=O)N[C@@H](CCC(=O)O)C(=O)N[C@@H](CCC(=O)O)C(N)=O)NC(=O)[C@H](Cc3c[nH]c4ccccc34)NC(=O)[C@H](CC(C)C)NC(=O)[C@H](CCC(=O)O)NC1=O)C(=O)NC2=O [N‐Myc73‐94‐N85C/G89C (mal)] (Ac-EPPSWVTEMLLECELWCSPAEE-NH2; linker 13-17 via Maleimide(3,4-diyl))",-7220
